Measured values published in publication PMC11434026, “Development and Validation of an LC-MS/MS Assay for the Quantitation of MO-OH-Nap Tropolone in Mouse Plasma: Application to In Vitro and In Vivo Pharmacokinetic Studies” (Molecules, 2024).
Where two headings read alike, the source gives them in different places.

Experiments:
[1] = In vitro metabolic stability in rat liver microsomes; assay type: in vitro ADME; details: RLM
Experimental: Metabolic stability was assessed using mouse, rat, and human liver microsomes (XenoTech, LLC, Lenexa, KS, USA) for phase I metabolism. Briefly, A reaction solution was prepared by mixing […] of PBS (100 mM, pH 7.4), 25 µL of microsomal protein (20 mg/mL), MgCl2 (5 µL; 10 mM), and 50 µL of NADPH (2 mM). The final volume (0.5 mL) was pre-incubated for 10 min in a 37 °C water bath at 60 rpm. An aliquot of MO-OH-Nap (2 µL from 1 µg/mL stock) was spiked into the above solution to initiate the reaction. Aliquots of (50 µL) were collected at time intervals (0, 5, 15, 20, 30, 45, and 60 min) and quenched with 300 µL of ACN, […]. Afterwards, 10 µL of IS stock (1.0 µg/mL) was spiked in each sample then vortexed (5 min) and centrifuged at 10,800 rpm (13,000× g) for 15 min. Samples were vortexed and centrifuged at 10,800 rpm (13,000× g) for 15 min, the supernatant was collected and transferred to an HPLC vial and 10 µL were injected into the LC-MS/MS system. Testosterone and diclofenac were used as positive and negative controls to ensure that liver microsomes and incubation conditions were appropriate for conducting metabolism studies.

[2] = Stability in mouse plasma at storage and use conditions; assay type: physicochemical
Experimental: The chemical stability of MO-OH-Nap and IS in plasma samples were assessed at LQC, MQC, and HQC concentrations, n = 3, under the following storage conditions: bench-top storage (up to 6 h at room temperature, 21 ± 0.5 °C), three freeze–thaw cycles (−80 ± 0.5 °C to room temperature for 30 min, back to −80 ± 0.5 °C then stored for 24 h, the cycle was repeated twice more), long-term storage (12 months at −80 ± 0.5 °C), and 24 h auto-sampler stability of extracted samples (at 4 ± 0.5 °C).

[3] = test system: mouse plasma proteins; assay: Plasma protein binding by Rapid Equilibrium Dialysis (RED); assay type: in vitro ADME; details: for % Drug Remaining at 5 h ± SD: 37 °C; for Equilibrium at 5 h ± SD: receiver/donor concentration; for % Plasma Protein Bound ± SD: mouse plasma; for % Drug Remaining at 5 h ± SD / % Plasma Protein Bound ± SD: 5 h
Experimental: […] The RED Kit represents 90 wells with two chambers at each well (red chamber for plasma and white buffer chamber separated by Teflon base plate. Prior to the experiments, RED kit was rinsed with 10% ethanol for 10 min and left to dryness. Also, mouse plasma was centrifuged at 2200 rpm (540× g) for 5 min and adjusted to pH […] with lactic acid. In brief, MO-OH-Nap spiked plasma samples (300 µL) were added in red chamber. The buffer chamber contained […] of Phosphate-buffered saline (100 mM, pH 7.4), which contained 100 mM sodium phosphate (Na3PO4) and 150 mM NaCl. The RED kit plate was covered with sealing tape and incubated at 37 °C on an orbital shaker at 300 rpm for 5 h. Aliquot of 50 µL were collected from both chambers, then mixed with equal amount of buffer or blank plasma, consecutively, for analysis. The samples were then processed using PPT extraction technique, as per described in the Section 4.4, and analyzed by LC-MS/MS.
Additionally, the plasma stability and the non-specific binding potential of MO-OH-Nap to the RED kit dialysis membrane were determined separately at the same time from the remaining plasma samples spiked with MO-OH-Nap.
Stability and non-specific binding were assessed by collecting samples at 0 h and 5 h of spiked MO-OH-Nap […] that was incubated in the same PPB condition for 5 h. The two samples were then analyzed by LC-MS/MS and the concentration was then compared between the two time points. The stability, equilibrium, device recovery, and PPB in plasma were calculated using the following equations:(6) % Drug Bound=Concentrationdonor cell−Conentrationreceiver cell/Concentrationdonor cell×100 (7) % Device Recovery=Concentrationreceiver cell+Concentrationdonor cell/Concentration5 h×100 (8) % Remaining at 5 h=Concentration5 h/Concentration0 h×100 (9) Equilibrium at 5 h=Concentrationreceiver cell/Concentrationdonor cell

[4] = test system: CD-1 mice; set-up: method as in PMID 30612055; details: up to 9.4 mg/kg intravenously three times weekly; cited from earlier work
[5] = Tissue distribution after single IP dose in CD-1 mice; assay type: in vivo, mouse; details: for concentration at 2 h: female, CD-1, mouse, 2 h after single IP 5 mg/kg
Experimental: MO-OH-Nap was dissolved in a 5% DMSO, 45% w/v hydroxypropyl-β-cyclodextrin solution in PBS (final concentration 0.625 mg/mL MO-OH-Nap). MO-OH-Nap (5 mg/kg) was administered IP. After dosing, approximately 100 µL of blood was collected in Lithium-Heparin-Microvette 300 µL Capillary Blood Collection Tube (SARSTEDT AG& Co., Nümbrecht, Germany) from the maxillary vein at 5, 15, 30 min and 1, 2, 4, 6, 8, 24, and 48 h. Two blood time points were collected from every mouse and the third time point was the terminal time point, for a total of three time points from each mouse (5 mice/group/per time point). Blood was centrifuged at 4000× g at 4 °C for 10 min to extract plasma. The collected plasma samples were stored at −80 °C until analysis. The specified tissues including liver, lungs, kidney, spleen, heart, and brain were collected at terminal times of 2, 8, 24 and 48 h after dosing. Tissue samples were rinsed with PBS to remove excess blood and blotted with filter paper. After weighing, each tissue sample was individually homogenized with de-ionized water using a TissueLyser II (Qiagen Science, Louisville, KY, USA). A dilution factor of five was used for liver, spleen, brain, lungs, and kidney while the heart was homogenized at a 6-fold dilution factor. All tissues were stored at −80 °C until analysis. Plasma concentrations (ng/mL) and tissue concentrations (ng/g) were determined for each time point collected using LC-MS/MS analysis.

[6] = autosampler 4 °C, up to 24 h, extracted samples, HQC 375 ng/mL
[7] = autosampler 4 °C, up to 24 h, extracted samples, LQC 3 ng/mL
[8] = autosampler 4 °C, up to 24 h, extracted samples, MQC 200 ng/mL
[9] = bench-top 21 °C, up to 6 h, HQC 375 ng/mL
[10] = bench-top 21 °C, up to 6 h, LQC 3 ng/mL
[11] = bench-top 21 °C, up to 6 h, MQC 200 ng/mL
[12] = freeze-thaw −80 °C, 3 cycles, HQC 375 ng/mL
[13] = freeze-thaw −80 °C, 3 cycles, LQC 3 ng/mL
[14] = freeze-thaw −80 °C, 3 cycles, MQC 200 ng/mL
[15] = long-term −80 °C, 12 months, HQC 375 ng/mL
[16] = long-term −80 °C, 12 months, LQC 3 ng/mL
[17] = long-term −80 °C, 12 months, MQC 200 ng/mL

## O=c1c(O)ccccc1-c1ccc2ccccc2c1 [MO-OH-Nap, MO-OH-Nap tropolone]
[1]; NADPH, 60 min
  metabolic depletion: < 15%
[1]; all time points to 60 min
  parent drug remaining: > 95%
[2]; [6]
  % Accuracy: 90.7 ± 5.3%
  Measured Mean Conc.: 340.2 ± 20.1 ng/mL
[2]; [7]
  % Accuracy: 101.9 ± 5.8%
  Measured Mean Conc.: 3.1 ± 0.2 ng/mL
[2]; [8]
  % Accuracy: 90.1 ± 0.6%
  Measured Mean Conc.: 180.2 ± 1.10 ng/mL
[2]; [9]
  % Accuracy: 101.5 ± 5.6%
  Measured Mean Conc.: 380.5 ± 20.9 ng/mL
[2]; [10]
  % Accuracy: 107.8 ± 14.8%
  Measured Mean Conc.: 3.2 ± 0.5 ng/mL
[2]; [11]
  % Accuracy: 95.8 ± 9.1%
  Measured Mean Conc.: 191.6 ± 18.1 ng/mL
[2]; [12]
  % Accuracy: 88.6 ± 4.7%
  Measured Mean Conc.: 332.2 ± 17.6 ng/mL
[2]; [13]
  % Accuracy: 100.5 ± 13.3%
  Measured Mean Conc.: 3.0 ± 0.4 ng/mL
[2]; [14]
  % Accuracy: 84.0 ± 0.9%
  Measured Mean Conc.: 167.9 ± 1.8 ng/mL
[2]; [15]
  % Accuracy: 92.7 ± 0.4%
  Measured Mean Conc.: 347.4 ± 1.5 ng/mL
[2]; [16]
  % Accuracy: 95.6 ± 2.4%
  Measured Mean Conc.: 2.9 ± 0.1 ng/mL
[2]; [17]
  % Accuracy: 99.8 ± 0.6%
  Measured Mean Conc.: 199.5 ± 1.3 ng/mL
[3]; 1 µg/mL
  % Drug Remaining at 5 h ± SD: 105.6 ± 0.8%
  Equilibrium at 5 h ± SD: 0.3 ± 0.5
  % Plasma Protein Bound ± SD: 99.6 ± 0.1%
[3]; 10 µg/mL
  % Drug Remaining at 5 h ± SD: 91.1 ± 2.5%
  Equilibrium at 5 h ± SD: 0.1 ± 0.00
  % Plasma Protein Bound ± SD: 99.7 ± 0.1%
[4]
  tolerability (blood counts, renal and hepatic functions, body weight): well-tolerated
[5]; 48 h after single IP 5 mg/kg
  detection in all harvested tissue: detected
[5]; brain, read-out: tissue concentration, brain
  concentration at 2 h: 51 ng/g
[5]; heart, read-out: tissue concentration, heart
  concentration at 2 h: 115 ng/g
[5]; kidney, read-out: tissue concentration, kidney
  concentration at 2 h: 750 ng/g
[5]; liver, read-out: tissue concentration, liver
  concentration at 2 h: 1390 ng/g
[5]; lungs, read-out: tissue concentration, lungs
  concentration at 2 h: 181 ng/g
[5]; spleen, read-out: tissue concentration, spleen
  concentration at 2 h: 745 ng/g
